Assay results as given in article PMC10175484, “Identification of three elevenin receptors and roles of elevenin disulfide bond and residues in receptor activation in Aplysia californica” (Scientific Reports, 2023).
pEC50: −log10 of the molar value. Where two headings read alike, the source gives them in different places. Where a SMILES comes first, the peptide text is derived from it. Bridges are numbered along the chain shown (N, C = ends).

Experiments:
apElevR2 = experiment: IP1 accumulation assay, apElevR2 in CHO-K1 cells; format: cell-based, Aplysia californica; conditions: for pEC50: CHO-K1 transiently expressing apElevR2, no Gα16, 1 h peptide incubation, average of n = 3, rounded to two significant figures, read-out: apElevR2 [EC50]; for apElevR2 Log[EC50] (M): logarithm of molar EC50, CHO-K1 transiently expressing apElevR2 (pcDNA3.1(+)), no Gα16 co-transfection, peptide 10^-12 to 10^-4 M, 1 h incubation, mean ± SEM, n = 3, SEM
Excerpt: (§1) To determine whether the Aplysia elevenin can activate the putative elevenin receptors, we cloned apElevRs to pcDNA3.1 (+) plasmid and transfected the three apElevRs in CHO-K1 cells. We used an IP1 accumulation assay to measure the concentration of IP1, which is a by-product in the Gαq signaling pathway, to provide evidence for the activation of receptors by elevenin. […] Initially, we used the elevenin peptide at two concentrations of 10^–11 M and 10^–4 M to screen apElevR1, apElevR2, and apElevR3. […] Further, we used different concentration gradients of elevenin, ranging from 10^–12 to 10^–4 M, to generate the dose–response curves (Fig. 8B–E).
(§2) Gαq-coupled GPCRs stimulate PLC-β activity, resulting in increased cellular D-Myo-Inositol 1-Phosphate (IP1). When the G protein-coupled receptor (GPCR) expressed in CHO-K1 cells (Procell, CL-0062) is activated, it is generated by the Gαq pathway through the appropriate ligand, and IP3 is formed which is degraded to IP1. Therefore, IP1 can be used as an alternative to IP3. First, the putative receptor cloned into the mammalian expression vector pcDNA3.1( +) of Aplysia was transiently expressed in CHO-K1 cells. CHO-K1 cells were cultured in F-12 K medium (Gibco, 21,127–022) containing 10% fetal bovine serum (Genial, G11-70,500) at 37 °C and 5% CO2. When the cell density in the 6-well plate reached 70–90%, 1.5 μg of putative receptor plasmid [in pcDNA3.1( +)] was mixed with 200 μl buffer (Polyplus) in a 1.5 ml EP tube and incubated at room temperature for 10 min. The DNA/Transfection reagent (Polyplus) mixture was then added dropwise to the 6-well plate, mixed gently, and the cells were incubated overnight at 37 °C and 5% CO2. The next day, cells were digested, counted, diluted to a density of 40,0000 cells/ml, and replated in a white 384-well assay plate (Greiner bio-one, B14061RI), each well inoculated with the diluted liquid 50 μl and incubate overnight at 37 °C in 5% CO2. On the third day, the CHO cells were incubated for 1 h after adding peptide. The activation of putative receptors was detected by monitoring IP1 accumulation using the IP1 detection kit in Tecan Spark (Cisbio, 62IPAPEB). All procedures were performed according to the manufacturer's instructions for the IP1 assay kit. The elevenin peptide and analogs were synthesized by Sangon Biotech or Guoping Pharmaceutical (Supplementary Fig. 4) and were aliquoted in 50 nmol EP tubes and stored at -20 °C until use.
(§3) Dose–response curves and bar graphs for experimental data were plotted using Prism software (GraphPad). Data are expressed as the mean ± SEM. Final EC50 values are rounded to two significant figures. All experimental data were taken from individual animals or preparations, and n refers to the number of preparations. Data were considered significant when P < 0.05. Statistical tests were performed using Prism software. They included Student’s t-test (two groups) and one-way ANOVA (three or more groups).

apElevR3 = experiment: IP1 accumulation assay, apElevR3 in CHO-K1 cells; format: cell-based, Aplysia californica; conditions: for apElevR3 Log[EC50] (M): logarithm of molar EC50, IP1 accumulation, CHO-K1 transiently expressing apElevR3 (pcDNA3.1(+)), no Gα16 co-transfection, peptide 10^-12 to 10^-4 M, 1 h incubation, mean ± SEM, n = 3, NA = no activation, SEM
Excerpt: as §1, §2, §3

apElevR1 = experiment: IP1 accumulation assay, apElevR1 in CHO-K1 cells; format: cell-based, Aplysia californica; conditions: for apElevR1 Log[EC50] (M): logarithm of molar EC50, IP1 accumulation, CHO-K1 transiently expressing apElevR1 (pcDNA3.1(+)), no Gα16 co-transfection, peptide 10^-12 to 10^-4 M, 1 h incubation, mean ± SEM, n = 3, NA = no activation, SEM
Excerpt: as §1, §2, §3

AstC-R = conditions: peptide could activate AstC-R; cited from earlier work
Excerpt: It is notable that there are 6 residu ...

[1] = target: elevenin receptor (first of two listed); conditions: CHO cells, Ca2+ response, no Gα16, cited from earlier work
Excerpt: (§4) Although the function of elevenin was first studied in C.elegans, its actual elevenin receptors have not yet been found in this species. In fact, prior to our work, there are a total of 6 elevenin receptors that have been described (Fig. 7). First, there are two GPCRs that have been deorphanized as elevenin receptors in both annelid Platynereis and arthropod Ixodes[2],[9]^. There is a single elevenin receptor in Nilaparvata lugens or Bombus terrestris[23] although we could not find the sequence for Nilaparvata NlA42 in NCBI. Second, in annelid Platynereis, the EC50 values of two elevenin recep ...

[2] = target: elevenin receptor (second of two listed); conditions: CHO cells, Ca2+ response, no Gα16, cited from earlier work
Excerpt: as §4

[3] = IP1 accumulation, NA = no activation
[4] = screen at 10^-4 M compared with 10^-11 M peptide, CHO-K1, n = 3, Student's t-test (Fig. 8A)

Compound | apElevR2 Log[EC50] (M) (apElevR2; [3]) | apElevR3 Log[EC50] (M) (apElevR3) | apElevR1 Log[EC50] (M) (apElevR1) | other results
CC(C)[C@@H]1NC(=O)[C@H](Cc2ccccc2)NC(=O)[C@H](CCCNC(=N)N)NC(=O)[C@H]([C@@H](C)O)NC(=O)[C@@H](NC(=O)[C@@H](N)CC(=O)O)CSSC[C@@H](C(=O)N[C@@H](CCCNC(=N)N)C(=O)NCC(=O)O)NC(=O)[C@H](C)NC(=O)[C@@H]2CCCN2C(=O)[C@H](C)NC(=O)[C@H](Cc2ccccc2)NC1=O [Elevenin5-17] (H-DCTRFVFAPACRG-OH; disulfide 2-11; N-terminus and C-terminus assumed) | -4.31±0.65 M | -5.52±0.18 M | -5.11±0.28 M | pEC50 (apElevR2; [3]): < 5.00
CC(C)[C@@H]1NC(=O)[C@H](Cc2ccccc2)NC(=O)[C@H](CCCNC(=N)N)NC(=O)[C@H]([C@@H](C)O)NC(=O)[C@@H](N)CSSC[C@@H](C(=O)O)NC(=O)[C@H](C)NC(=O)[C@@H]2CCCN2C(=O)[C@H](C)NC(=O)[C@H](Cc2ccccc2)NC1=O [Elevenin6-15] (H-CTRFVFAPAC-OH; disulfide 1-10) | – | -5.20±0.36 M | – | pEC50 (apElevR2; [3]): < 5.00; Effect on apElevR1 (IP1 dose-response), in words (apElevR1; dose-response, CHO-K1, n = 3 (Fig. 10A, G)): did not have any effect
CC[C@H](C)[C@H](NC(=O)[C@H](CCCNC(=N)N)NC(=O)[C@@H]1CCCN1C(=O)[C@@H](N)CCCNC(=N)N)C(=O)N[C@@H](CC(=O)O)C(=O)N[C@H]1CSSC[C@@H](C(=O)N[C@@H](CCCNC(=N)N)C(=O)NCC(=O)N[C@H](C(=O)N[C@@H](CO)C(=O)N[C@@H](C)C(=O)O)C(C)C)NC(=O)[C@H](C)NC(=O)[C@@H]2CCCN2C(=O)[C@H](C)NC(=O)[C@H](Cc2ccccc2)NC(=O)[C@H](C(C)C)NC(=O)[C@H](Cc2ccccc2)NC(=O)[C@H](CCCNC(=N)N)NC(=O)[C@H]([C@@H](C)O)NC1=O [Elevenin] (H-RPRIDCTRFVFAPACRGVSA-OH; disulfide 6-15; N-terminus and C-terminus assumed) | -8.93±0.34 M | -8.51±0.37 M | -7.60±0.40 M | Activation of apElevR2 in screening (IP1), in words (apElevR2; [4]): could not activate; Activation of apElevR3 in screening (IP1), in words (apElevR3; [4]): could not activate; Activation of apElevR1 in screening (IP1), in words (apElevR1; [4]): could not activate
CC[C@H](C)[C@H](NC(=O)[C@H](CCCNC(=N)N)NC(=O)[C@@H]1CCCN1C(=O)[C@@H](N)CCCNC(=N)N)C(=O)N[C@@H](CC(=O)O)C(=O)N[C@H]1CSSC[C@@H](C(=O)N[C@@H](CCCNC(=N)N)C(=O)NCC(=O)N[C@H](C(=O)N[C@@H](CO)C(=O)N[C@@H](C)C(=O)O)C(C)C)NC(=O)[C@H](C)NC(=O)[C@@H]2CCCN2C(=O)[C@H](C)NC(=O)[C@H](C)NC(=O)[C@H](C(C)C)NC(=O)[C@H](Cc2ccccc2)NC(=O)[C@H](CCCNC(=N)N)NC(=O)[C@H]([C@@H](C)O)NC1=O [[Ala^11]Elevenin] (H-RPRIDCTRFVAAPACRGVSA-OH; disulfide 6-15; N-terminus and C-terminus assumed) | -6.62±0.10 M | -6.55±0.21 M | -6.97 ±0.20 M | –
CC[C@H](C)[C@H](NC(=O)[C@H](CCCNC(=N)N)NC(=O)[C@@H]1CCCN1C(=O)[C@@H](N)CCCNC(=N)N)C(=O)N[C@@H](CC(=O)O)C(=O)N[C@H]1CSSC[C@@H](C(=O)N[C@@H](CCCNC(=N)N)C(=O)NCC(=O)N[C@H](C(=O)N[C@@H](CO)C(=O)N[C@@H](C)C(=O)O)C(C)C)NC(=O)[C@H](C)NC(=O)[C@H](C)NC(=O)[C@H](C)NC(=O)[C@H](Cc2ccccc2)NC(=O)[C@H](C(C)C)NC(=O)[C@H](Cc2ccccc2)NC(=O)[C@H](CCCNC(=N)N)NC(=O)[C@H]([C@@H](C)O)NC1=O [[Ala^13]Elevenin] (H-RPRIDCTRFVFAAACRGVSA-OH; disulfide 6-15; N-terminus and C-terminus assumed) | -4.48±0.21 M | -6.42±0.34 M | -6.92±0.13 M | EC50 (apElevR2; Table 2 prints no unit, the same values are in nM in Fig. 9J, IP1 accumulation, CHO-K1, n = 3, NA = no activation, read-out: EC50 values on apElevR2 (Table 2)): > 10000 nM
AstC without a disulfide bond: Aplysia allatostatin-C (SHYSSMCMFNVVACY) without a disulfide bond (no disulfide bond) | – | – | – | EC50 value on AstC-R compared to AstC with the disulfide bond, in words (AstC-R): significantly higher
LDCRKYPFYYRCRGISA [Ixodes elevenin, elevenin of arthropod Ixodes scapularis, ligand of its two elevenin receptors (literature)] | – | – | – | pEC50 ([1]; Ixodes): 11.00; pEC50 ([2]; Ixodes): 8.25
PDCTRFVFHPSCRGVAA [Platynereis elevenin, elevenin of annelid Platynereis dumerilii, ligand of its two elevenin receptors (literature)] | – | – | – | pEC50 ([1]; Platynereis): 7.21; pEC50 ([2]; Platynereis): 8.89
